# Measured values as given in US11077126B2 (priority 2017, dated 2021).
# Tested on: transplanted tumor of human large cell lung cancer H460 cells
# Assay: Human large cell lung cancer (H460) in nude mice model
# Settings: 30 mg/kg i.g. 30 d
# Protocol: Then cell concentration was adjusted to 1×10^7/ml with matrigel, and then each nude mouse was inoculated subcutaneously with 0.2 ml of cells at its right armpit and recorded as the first day of inoculation. […] Each group was continuously administered intragastrically for 30 days with a dose of 20 ml/kg. The mice were sacrificed the next day after drug withdrawal and the indicators were tested. The long diameter and short diameter of the tumor, and the body weight of each mouse were recorded every 3 days from drug administration to nude mouse sacrifice.
# The body weight of the nude mice and the long diameter (a) and short diameter (b) of the transplanted tumor were measured every 3 days, and the tumor volume (v), relative tumor volume (RTV) and relative tumor proliferation rate (T/C) are calculated respectively according to the following formulas, wherein V=a×b^2/2; RTV=V/V0 (V0 is the tumor volume before administration, V is the tumor volume before sacrifice), and T/C (%)=treatment group RTV/model control group RTV×100%.
# Each mouse was weighed and sacrificed. After the tumor was completely stripped off from the body of the mouse, the non-tumor tissues such as blood stains and fat were removed to weigh the tumor and calculate the tumor growth inhibition rate. The average tumor weight of each group of mice is used as an indicator of efficacy. Tumor growth inhibition rate (%)=(1−the average tumor weight of the treatment group/the average tumor weight of the model group)×100%.
compound,measurement,value
O=P1(N(CCCl)CCCl)NCCCO1 (centres unmarked) [Cyclophosphamide],Body Weight (g)(d1),20.32 ± 0.87 g
same,Body Weight (g)(d30),19.25 ± 0.83 g
same,Inhibition Rate (%),68.49%
same,Relative Tumor Proliferation Rate(T/C),36.37%
same,Relative Tumor Volume (RTV),7.66 ± 1.26
same,Tumor Volume (mm3) (d1),130.82 ± 2.38 mm3
same,Tumor Volume (mm3) (d30),1002.08 ± 48.82 mm3
same,Tumor Weight,0.61 ± 0.13 g
